Common to all, as to conditions: 37 °C
Assay [1] addresses T1, Prostaglandin E2 receptor EP4 subtype (Rattus norvegicus, UniProt P43114). The assay is described as follows: cAMP Assay.
Protocol: Seed cells on an EP2 or EP4 STEP plate at a density of 40,000-80,000 cells/well in 200 uL of reduced serum medium containing 0.5% FBS. Place the plate in a 37° C. incubator with 5% CO2 and incubate overnight. […] After 16-18 hours of incubation, aspirate the culture media from each well. […] Add 200 ul of culture medium containing 500 uM IBMX (an inhibitor of cAMP phosphodiesterase) and different concentration of test compounds to the assigned wells. For each test compound, at least 8 concentrations starting at highest 10 M and lowest 0.01 pM were tested. In addition each concentration had triplicates. […] Incubate the cells in a cell culture incubator for 30 minutes. […] Centrifuge the plate at 1,000x rpm for 10 minutes. […] Aspirate the supernatant.
For assay [2], the target named is Prostaglandin E2 receptor EP2 subtype (Rattus norvegicus, UniProt Q62928). The assay is described as follows: SEAP Activity Assay.
Protocol: (§1) 1. Seed cells on an EP2 or EP4 STEP plate at a density of 40,000-80,000 cells/well in 200 ul of reduced serum medium containing 0.5% FBS. Place the plate in a 37° C. incubator with 5% CO2 and incubate overnight. 2. After 16-18 hours of incubation, aspirate the culture media from each well. 3. Add 200 ul of culture medium containing different concentration of test compounds to the assigned wells. For each test compound, at least 8 concentrations starting at highest 10 M and lowest 0.01 pM were tested. In addition each concentration had triplicates. […] 4. […] Cover the plate with the lid.
For assay [3], the target named is T1, Prostaglandin E2 receptor EP4 subtype. The assay is described as follows: SEAP Activity Assay.
Protocol: as §1

What is called EC50 is the concentration needed to bring the measured effect to its halfway point. A higher EC50 goes with lower potency in that assay.

T1 sequence (P43114 whole entry): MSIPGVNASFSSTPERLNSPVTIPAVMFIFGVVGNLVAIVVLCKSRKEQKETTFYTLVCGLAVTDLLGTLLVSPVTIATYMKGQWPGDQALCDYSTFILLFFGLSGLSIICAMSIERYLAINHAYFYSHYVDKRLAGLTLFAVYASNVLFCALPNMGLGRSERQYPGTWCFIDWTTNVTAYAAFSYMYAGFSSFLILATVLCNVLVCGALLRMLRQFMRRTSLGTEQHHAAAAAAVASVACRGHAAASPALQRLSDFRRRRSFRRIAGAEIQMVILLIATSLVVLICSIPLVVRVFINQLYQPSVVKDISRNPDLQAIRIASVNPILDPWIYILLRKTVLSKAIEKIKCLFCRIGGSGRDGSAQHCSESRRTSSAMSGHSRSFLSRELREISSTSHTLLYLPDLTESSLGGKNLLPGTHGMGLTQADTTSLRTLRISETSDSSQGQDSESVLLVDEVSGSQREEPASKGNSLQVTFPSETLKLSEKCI
Chain of Prostaglandin E2 receptor EP2 subtype (Q62928 whole entry): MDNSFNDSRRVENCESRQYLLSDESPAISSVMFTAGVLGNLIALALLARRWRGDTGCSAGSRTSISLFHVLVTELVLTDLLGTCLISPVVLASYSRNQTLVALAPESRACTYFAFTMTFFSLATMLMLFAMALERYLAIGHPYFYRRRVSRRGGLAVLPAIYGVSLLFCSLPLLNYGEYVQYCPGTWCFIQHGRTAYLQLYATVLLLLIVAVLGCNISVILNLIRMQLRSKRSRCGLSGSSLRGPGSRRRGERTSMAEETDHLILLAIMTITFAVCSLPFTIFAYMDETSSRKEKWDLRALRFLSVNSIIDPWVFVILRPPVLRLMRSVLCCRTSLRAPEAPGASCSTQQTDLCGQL

Turning to `CCC#CC[C@H](C)[C@H](O)/C=C/[C@H]1CC(F)(F)C(=O)N1CCCc1ccc(C(=O)O)s1` [US9180116, 24D], the EC50 was found to be 0.73 nM in assay [1], 763 nM in assay [2] and 0.11 nM in assay [3].
For `C[C@@H](CCc1ccccc1)[C@H](O)/C=C/[C@H]1CC(F)(F)C(=O)N1CCCc1ccc(C(=O)O)s1` [US9180116, 37C], it took 0.15 nM to reach a half-maximal effect in assay [1] (EC50).
With `C[C@@H](CCc1ccccc1)[C@@H](O)/C=C/[C@H]1CC(F)(F)C(=O)N1CCCc1ccc(C(=O)O)s1` [US9180116, 37D], the EC50 was 198 nM in assay [1] and 743 nM in assay [2].

The values are drawn from BindingDB's records for patent US9180116 (Cayman Chemical, 2015).
